SMILES strings stand for the structures. A value given as a limit tells only on which side of the number the result lay.

This experiment deals with Ebolavirus. In words: Antiviral activity against Ebola virus by cell based luciferase reporter gene assay. Format: functional, Ebola virus sp. Conditions: Orthoebolavirus. Background: A reporter such as luciferase makes a cellular process visible.
In the case of `CN(CC(=O)N1CCN(Cc2ccccc2)CC1)C(=O)CC12CC3CC(CC(C3)C1)C2`, it took 6.7 µM to reach half-maximal inhibition (IC50). For the compound `O=C(Cc1ccccc1)NCC(=O)N1CCN(Cc2ccccc2)CC1`, the IC50 was over 40 µM. Then `O=C(CC12CC3CC(CC(C3)C1)C2)NCC(=O)N1CCN(C(=O)c2ccccc2)CC1`, with 3 µM; and `COC(=O)c1ccc(CN2CCN(C(=O)CNC(=O)CC34CC5CC(CC(C5)C3)C4)CC2)cc1`, with 15 µM; and `O=C(CC12CC3CC(CC(C3)C1)C2)NCC(=O)N1CCN(Cc2cccnc2)CC1`, with 6.8 µM. Then `CC(C)C(NC(=O)CC12CC3CC(CC(C3)C1)C2)C(=O)N1CCN(Cc2ccccc2)CC1` (centres undefined), with over 40 µM; and `O=C(CC12CC3CC(CC(C3)C1)C2)NCC(=O)N1CCN(Cc2cccc(OCc3ccccc3)c2)CC1`, with 4 µM. Consider `CC(NC(=O)CC12CC3CC(CC(C3)C1)C2)C(=O)N1CCN(Cc2ccccc2)CC1` (centres undefined), for which the 50% inhibitory concentration (IC50) was over 40 µM. The compound `CC(OCc1ccccc1)C(NC(=O)CC12CC3CC(CC(C3)C1)C2)C(=O)N1CCN(Cc2ccccc2)CC1` (centres undefined) came in with an IC50 of 29 µM. `O=C(CC12CC3CC(CC(C3)C1)C2)NCC(=O)N1CCN(Cc2cccc3ccccc23)CC1` yielded an IC50 of 3.4 µM. Then `O=C(CC12CC3CC(CC(C3)C1)C2)NCC(=O)N1CCN(Cc2ccc(O)cc2)CC1`, with 7 µM; and `O=C(CC12CC3CC(CC(C3)C1)C2)NCC(=O)N1CCN(Cc2ccncc2)CC1`, with 14.5 µM; and `O=C(CC12CC3CC(CC(C3)C1)C2)NCC(=O)N1CCN(Cc2ccccc2OCc2ccc([N+](=O)[O-])cc2)CC1`, with 1.7 µM. As to `O=C(CC12CC3CC(CC(C3)C1)C2)NCC(=O)N1CCN(Cc2ccccc2Cl)CC1`, the IC50 was 3.2 µM. In turn, `CC(C)(C)CC(=O)NCC(=O)N1CCN(Cc2ccccc2)CC1` yielded an IC50 of over 40 µM. `O=C(CC12CC3CC(CC(C3)C1)C2)NCC(=O)N1CCN(Cc2ccc(C(=O)O)cc2)CC1` registered an IC50 of over 40 µM.

As to `Cc1ccc(CN2CCN(C(=O)CNC(=O)CC34CC5CC(CC(C5)C3)C4)CC2)cc1`, half-maximal inhibition (IC50) was put at 1.1 µM. Then `Cc1cccc(COc2ccccc2CN2CCN(C(=O)CNC(=O)CC34CC5CC(CC(C5)C3)C4)CC2)c1`, with 0.35 µM; and `O=C(CC12CC3CC(CC(C3)C1)C2)NCC(=O)N1CCN(Cc2ccccc2OCc2ccc(C(=O)O)cc2)CC1`, with 4 µM.

For `O=C(CC12CC3CC(CC(C3)C1)C2)NCC(=O)N1CCN(Cc2cc(Br)ccc2O)CC1`, the midpoint of inhibition, the IC50, lay at 0.5 µM. Compared with the last compound, the IC50 is about 8-fold lower. For `CNC(=O)c1ccc(COc2ccccc2CN2CCN(C(=O)CNC(=O)CC34CC5CC(CC(C5)C3)C4)CC2)cc1`, the IC50 is 2.1 µM. In turn, `O=C(CC12CC3CC(CC(C3)C1)C2)NCC(=O)N1CCN(Cc2ccc(Cl)cc2Cl)CC1` returned a 50% inhibitory concentration (IC50) of 6.6 µM. Then `O=C(CC1CCCCC1)NCC(=O)N1CCN(Cc2ccccc2)CC1`, with over 40 µM; and `O=C(Cc1ccc(Cl)cc1)NCC(=O)N1CCN(Cc2ccccc2)CC1`, with 19 µM. The compound `COc1cccc(COc2ccccc2CN2CCN(C(=O)CNC(=O)CC34CC5CC(CC(C5)C3)C4)CC2)c1` yielded an IC50 of 1.9 µM. `O=C(CC12CC3CC(CC(C3)C1)C2)NCC(=O)N1CCN(Cc2ccccc2OCc2cccc(Br)c2)CC1` registered an IC50 of 2.4 µM. For `O=C(NCC(=O)N1CCN(Cc2ccccc2)CC1)C1CCCCC1`, the half-inhibitory concentration (IC50) was determined as 27 µM. Against the preceding compound, the IC50 is about 11-fold higher. Then `O=C(CC12CC3CC(CC(C3)C1)C2)NCC(=O)N1CCN(Cc2ccccc2Br)CC1`, with 3.4 µM; and `CC(C)CC(NC(=O)CC12CC3CC(CC(C3)C1)C2)C(=O)N1CCN(Cc2ccccc2)CC1` (centres undefined), with 29 µM; and `O=C(CC12CC3CC(CC(C3)C1)C2)NC(CCC(=O)OCc1ccccc1)C(=O)N1CCN(Cc2ccccc2)CC1` (centres undefined), with 8.7 µM. Then `O=C(CC12CC3CC(CC(C3)C1)C2)NCC(=O)N1CCN(Cc2ccc(Br)cc2)CC1`, with 3.2 µM. With `Cc1cc(O)cc(C)c1CN1CCN(C(=O)CNC(=O)CC23CC4CC(CC(C4)C2)C3)CC1`, the IC50 came out at 8 µM. The compound `N#Cc1ccc(CN2CCN(C(=O)CNC(=O)CC34CC5CC(CC(C5)C3)C4)CC2)cc1` showed an IC50 of 8 µM. Then `O=C(CC12CC3CC(CC(C3)C1)C2)NCC(=O)N1CCN(Cc2ccc3ccccc3c2)CC1`, with 3 µM.

With `O=C(CC12CC3CC(CC(C3)C1)C2)NCC(=O)N1CCN(Cc2cccc(Br)c2)CC1`, 1 µM corresponded to half-maximal inhibition (IC50). The compound `O=C(NCC(=O)N1CCN(Cc2ccccc2)CC1)c1ccccc1` had an IC50 of 31 µM. Compared with the last compound, the IC50 is about 31-fold higher.

`O=C(CC12CC3CC(CC(C3)C1)C2)NCC(=O)N1CCN(Cc2ccccc2OCc2cccnc2)CC1` gave a half-maximal inhibitory concentration (IC50) of 2.1 µM. Take `O=C(CC12CC3CC(CC(C3)C1)C2)NCC(=O)N1CCN(Cc2ccccc2O)CC1`: the IC50 is 2.9 µM.

Turning to `N#Cc1cccc(CN2CCN(C(=O)CNC(=O)CC34CC5CC(CC(C5)C3)C4)CC2)c1`, 1.2 µM corresponded to half-maximal inhibition (IC50). With `CC(=O)Nc1ccc(CN2CCN(C(=O)CNC(=O)CC34CC5CC(CC(C5)C3)C4)CC2)cc1`, 7.5 µM corresponded to half-maximal inhibition (IC50).

`O=C(CC12CC3CC(CC(C3)C1)C2)NCC(=O)N1CCN(Cc2ccc(Cl)cc2)CC1` came in with an IC50 of 2.5 µM. The compound `O=C(CNC(=O)C12CC3CC(CC(C3)C1)C2)N1CCN(Cc2ccccc2)CC1` gave an IC50 of 29 µM. This IC50 is about 12-fold higher than that of the compound before. Then `O=C(CC12CC3CC(CC(C3)C1)C2)NCC(=O)N1CCN(Cc2cccc(C(F)(F)F)c2)CC1`, with 2.6 µM; and `COc1cccc(CN2CCN(C(=O)CNC(=O)CC34CC5CC(CC(C5)C3)C4)CC2)c1`, with 2 µM.

`N#Cc1ccccc1CN1CCN(C(=O)CNC(=O)CC23CC4CC(CC(C4)C2)C3)CC1` had a half-maximal inhibitory concentration (IC50) of 3.9 µM. Against the preceding compound, the IC50 is about 1.9-fold higher. Take `COC(=O)c1cccc(CN2CCN(C(=O)CNC(=O)CC34CC5CC(CC(C5)C3)C4)CC2)c1`: it took 14 µM to reach half-maximal inhibition (IC50). Then `O=C(CC12CC3CC(CC(C3)C1)C2)NCC(=O)N1CCN(Cc2ccccc2OCc2ccccc2)CC1`, with 2 µM; and `N#CCC(NC(=O)CC12CC3CC(CC(C3)C1)C2)C(=O)N1CCN(Cc2ccccc2)CC1` (centres undefined), with 22 µM; and `CC(O)C(NC(=O)CC12CC3CC(CC(C3)C1)C2)C(=O)N1CCN(Cc2ccccc2)CC1` (centres undefined), with over 40 µM.

Take `O=C(CC12CC3CC(CC(C3)C1)C2)NCC(=O)N1CCN(C(c2ccccc2)c2ccccc2)CC1`: the IC50 was over 10 µM. `O=C(CC12CC3CC(CC(C3)C1)C2)NCC(=O)N1CCN(Cc2ccccc2OCc2ccncc2)CC1` registered a concentration for half-maximal inhibition (IC50) of 0.8 µM. Then `Cc1cccc(CN2CCN(C(=O)CNC(=O)CC34CC5CC(CC(C5)C3)C4)CC2)c1`, with 1.1 µM; and `COc1ccc(CN2CCN(C(=O)CNC(=O)CC34CC5CC(CC(C5)C3)C4)CC2)cc1`, with 5.4 µM. In turn, `COC(=O)c1ccccc1CN1CCN(C(=O)CNC(=O)CC23CC4CC(CC(C4)C2)C3)CC1` came in with an IC50 of 8 µM. The compound `COc1ccccc1CN1CCN(C(=O)CNC(=O)CC23CC4CC(CC(C4)C2)C3)CC1` yielded an IC50 of 2.1 µM.

`O=C(CC12CC3CC(CC(C3)C1)C2)NCC(=O)N1CCN(Cc2ccc(Cl)c(Cl)c2)CC1` came in with an IC50 of 0.75 µM.

`O=C(CC12CC3CC(CC(C3)C1)C2)NCC(=O)N1CCN(Cc2ccccc2OCc2ccccc2[N+](=O)[O-])CC1` came in with a half-inhibitory concentration (IC50) of 1.6 µM. Compared with the last compound, the IC50 is about 2.1-fold higher. Turning to `COC(=O)c1cccc(COc2ccccc2CN2CCN(C(=O)CNC(=O)CC34CC5CC(CC(C5)C3)C4)CC2)c1`, the IC50 amounted to 2.4 µM. The IC50 values of the last two compounds are within 1.5-fold of each other. `O=C(CC12CC3CC(CC(C3)C1)C2)NCC(=O)N1CCN(Cc2ccccn2)CC1` displayed an IC50 of 8.5 µM. This IC50 lies about 3.5-fold higher than the previous one.

The term IC50 denotes the midpoint of a concentration-inhibition curve.

The values above are taken from ChEMBL document CHEMBL2321771, “Inhibition of Ebola Virus Infection: Identification of Niemann-Pick C1 as the Target by Optimization of a Chemical Probe” (ACS Med Chem Lett, 2013).
